In patent US9241930B2, “Compositions and methods for treating viral diseases” (NovaDrug, LLC, priority 2011, dated 2016):

System: mouse bone marrow polychromatic erythrocytes
Conditions: mice, single oral gavage

## O=P1(N(CCCl)CCCl)NCCCO1 (centres unmarked) [Cyclophosphamide monohydrate]
  bone marrow cytotoxicity (erythropoiesis): some cytotoxicity
48 hour time-point, p≦0.05
  incidence of micronucleated polychromatic erythrocytes: significant increase
